The supplement of paper PMC10307832

How the values were obtained:
Test in all cases: relative viability (nuclei count vs DMSO), 5 days (fraction); higher = more cells survive
[1] = compound: C1=CC=C2C(=C1)N=C(S2)C(C#N)C3=NC(=NC=C3)NCCC4=CN=CC=C4 + CS(=O)(=O)N1CCN(Cc2cc3nc(-c4cccc5[nH]ncc45)nc(N4CCOCC4)c3s2)CC1 [Pictilisib] (partner 1 µM)
Outline: (§1)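 One day after seeding in 1536-well plates, lung cancer cell lines were dosed by pin tool. Dosing was either single-drug or a fixed anchor-drug dose plus five library-drug doses (not always all listed) in √10 steps. After 5 days, nuclei were stained in one fix-and-stain step and counted on 4× images, and relative viability is the nuclei count of treated wells over that of vehicle wells, given as the median of duplicate plates.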

[2] = compound: C1=CC=C2C(=C1)N=C(S2)C(C#N)C3=NC(=NC=C3)NCCC4=CN=CC=C4 + C[C@@H](Oc1cc(-c2cnn(C3CCNCC3)c2)cnc1N)c1c(Cl)ccc(F)c1Cl [Crizotinib] (partner 1 µM)
Outline: as §1

[3] = compound: COc1cc2/c(=N/c3ccc(Br)cc3F)nc[nH]c2cc1OCC1CCN(C)CC1 [Vandetanib] + C[C@@H](Oc1cc(-c2cnn(C3CCNCC3)c2)cnc1N)c1c(Cl)ccc(F)c1Cl [Crizotinib] (partner 1 µM)
Outline: as §1

[4] = compound: COc1cc2/c(=N/c3ccc(Br)cc3F)nc[nH]c2cc1OCC1CCN(C)CC1 [Vandetanib] + Cc1nc(Nc2ncc(C(=O)Nc3c(C)cccc3Cl)s2)cc(N2CCN(CCO)CC2)n1 [Dasatinib] (partner 0.075 µM)
Outline: as §1

Work on NCI-H838 yielded a relative viability ([1]; first compound 0.005 µM) of 0.463, a relative viability ([1]; first compound 0.01581 µM) of 0.413 and a relative viability ([1]; first compound 0.05 µM) of 0.439. It also gave a relative viability ([1]; first compound 0.1581 µM) of 0.612, a relative viability ([1]; first compound 0.5 µM) of 0.391 and a relative viability ([2]; first compound 0.005 µM) of 0.546. The relative viability ([2]; first compound 0.01581 µM) was 0.87, the relative viability ([2]; first compound 0.05 µM) was 0.817 and the relative viability ([2]; first compound 0.1581 µM) was 0.861. It also gave a relative viability ([2]; first compound 0.5 µM) of 0.555, a relative viability ([3]; first compound 0.02 µM) of 0.819 and a relative viability ([3]; first compound 0.06325 µM) of 0.846. The relative viability ([3]; first compound 0.2 µM) was 0.898, the relative viability ([3]; first compound 0.6325 µM) was 0.819 and the relative viability ([3]; first compound 2 µM) was 0.724. It also gave a relative viability ([4]; first compound 0.02 µM) of 0.278, a relative viability ([4]; first compound 0.06325 µM) of 0.286 and a relative viability ([4]; first compound 0.2 µM) of 0.341. It also gave a relative viability ([4]; first compound 0.6325 µM) of 0.29 and a relative viability ([4]; first compound 2 µM) of 0.27.

For NCI-H2009, the relative viability ([1]; first compound 0.005 µM) was 0.853, the relative viability ([1]; first compound 0.01581 µM) was 0.644 and the relative viability ([1]; first compound 0.05 µM) was 0.845. The relative viability ([1]; first compound 0.1581 µM) was 1, the relative viability ([1]; first compound 0.5 µM) was 0.835 and the relative viability ([2]; first compound 0.005 µM) was 1. For the same cell line, the relative viability ([2]; first compound 0.01581 µM) was 0.991, the relative viability ([2]; first compound 0.05 µM) was 0.97 and the relative viability ([2]; first compound 0.1581 µM) was 1.08. It also gave a relative viability ([2]; first compound 0.5 µM) of 0.976, a relative viability ([3]; first compound 0.02 µM) of 1.06 and a relative viability ([3]; first compound 0.06325 µM) of 0.964. The relative viability ([3]; first compound 0.2 µM) was 1.08, the relative viability ([3]; first compound 0.6325 µM) was 1.02 and the relative viability ([3]; first compound 2 µM) was 1.03. For the same cell line, the relative viability ([4]; first compound 0.02 µM) was 0.326, the relative viability ([4]; first compound 0.06325 µM) was 0.241 and the relative viability ([4]; first compound 0.2 µM) was 0.329. The relative viability ([4]; first compound 0.6325 µM) was 0.309 and the relative viability ([4]; first compound 2 µM) was 0.349.

Work on SK-MES-1 yielded a relative viability ([1]; first compound 0.005 µM) of 0.365, a relative viability ([1]; first compound 0.01581 µM) of 0.454 and a relative viability ([1]; first compound 0.05 µM) of 0.277. It also gave a relative viability ([1]; first compound 0.1581 µM) of 0.352, a relative viability ([1]; first compound 0.5 µM) of 0.374 and a relative viability ([2]; first compound 0.005 µM) of 1.11. For the same cell line, the relative viability ([2]; first compound 0.01581 µM) was 1.12, the relative viability ([2]; first compound 0.05 µM) was 0.99 and the relative viability ([2]; first compound 0.1581 µM) was 1.14. For the same cell line, the relative viability ([2]; first compound 0.5 µM) was 0.902, the relative viability ([3]; first compound 0.02 µM) was 1.01 and the relative viability ([3]; first compound 0.06325 µM) was 0.902. The relative viability ([3]; first compound 0.2 µM) was 0.938, the relative viability ([3]; first compound 0.6325 µM) was 0.926 and the relative viability ([3]; first compound 2 µM) was 0.875. It also gave a relative viability ([4]; first compound 0.02 µM) of 0.358, a relative viability ([4]; first compound 0.06325 µM) of 0.33 and a relative viability ([4]; first compound 0.2 µM) of 0.347. For the same cell line, the relative viability ([4]; first compound 0.6325 µM) was 0.27 and the relative viability ([4]; first compound 2 µM) was 0.286.

H3255 gave a relative viability ([1]; first compound 0.005 µM) of 0.493, a relative viability ([1]; first compound 0.01581 µM) of 0.449 and a relative viability ([1]; first compound 0.05 µM) of 0.47. For the same cell line, the relative viability ([1]; first compound 0.1581 µM) was 0.553, the relative viability ([1]; first compound 0.5 µM) was 0.535 and the relative viability ([2]; first compound 0.005 µM) was 0.722. For the same cell line, the relative viability ([2]; first compound 0.01581 µM) was 0.811, the relative viability ([2]; first compound 0.05 µM) was 0.911 and the relative viability ([2]; first compound 0.1581 µM) was 0.937. For the same cell line, the relative viability ([2]; first compound 0.5 µM) was 0.824, the relative viability ([3]; first compound 0.02 µM) was 0.882 and the relative viability ([3]; first compound 0.06325 µM) was 0.847. The relative viability ([3]; first compound 0.2 µM) was 0.739, the relative viability ([3]; first compound 0.6325 µM) was 0.519 and the relative viability ([3]; first compound 2 µM) was 0.208. The relative viability ([4]; first compound 0.02 µM) was 0.364, the relative viability ([4]; first compound 0.06325 µM) was 0.358 and the relative viability ([4]; first compound 0.2 µM) was 0.325. The relative viability ([4]; first compound 0.6325 µM) was 0.252 and the relative viability ([4]; first compound 2 µM) was 0.264.

Work on Calu-6 yielded a relative viability ([1]; first compound 0.005 µM) of 0.74, a relative viability ([1]; first compound 0.01581 µM) of 0.885 and a relative viability ([1]; first compound 0.05 µM) of 0.938. For the same cell line, the relative viability ([1]; first compound 0.1581 µM) was 0.932, the relative viability ([1]; first compound 0.5 µM) was 0.806 and the relative viability ([2]; first compound 0.005 µM) was 0.479. For the same cell line, the relative viability ([2]; first compound 0.01581 µM) was 0.771, the relative viability ([2]; first compound 0.05 µM) was 0.831 and the relative viability ([2]; first compound 0.1581 µM) was 0.907. For the same cell line, the relative viability ([2]; first compound 0.5 µM) was 0.638, the relative viability ([3]; first compound 0.02 µM) was 0.816 and the relative viability ([3]; first compound 0.06325 µM) was 0.723. The relative viability ([3]; first compound 0.2 µM) was 0.897, the relative viability ([3]; first compound 0.6325 µM) was 0.833 and the relative viability ([3]; first compound 2 µM) was 0.791.

Work on NCI-H2342 yielded a relative viability ([4]; first compound 0.02 µM) of 0.339, a relative viability ([4]; first compound 0.06325 µM) of 0.335 and a relative viability ([4]; first compound 0.2 µM) of 0.321. For the same cell line, the relative viability ([4]; first compound 0.6325 µM) was 0.315 and the relative viability ([4]; first compound 2 µM) was 0.361.

Cell Line NCI-H1395 has a relative viability ([1]; first compound 0.005 µM) of 0.602, a relative viability ([1]; first compound 0.05 µM) of 0.651 and a relative viability ([1]; first compound 0.1581 µM) of 0.781. For the same cell line, the relative viability ([1]; first compound 0.5 µM) was 0.81, the relative viability ([4]; first compound 0.02 µM) was 0.349 and the relative viability ([4]; first compound 0.06325 µM) was 0.373. It also gave a relative viability ([4]; first compound 0.2 µM) of 0.417, a relative viability ([4]; first compound 0.6325 µM) of 0.405 and a relative viability ([4]; first compound 2 µM) of 0.444.

EBC-1 was tested, and the relative viability ([1]; first compound 0.005 µM) was 0.398, the relative viability ([1]; first compound 0.01581 µM) was 0.363 and the relative viability ([1]; first compound 0.05 µM) was 0.352. It also gave a relative viability ([1]; first compound 0.1581 µM) of 0.368, a relative viability ([1]; first compound 0.5 µM) of 0.275 and a relative viability ([2]; first compound 0.005 µM) of 0.236. For the same cell line, the relative viability ([2]; first compound 0.01581 µM) was 0.172, the relative viability ([2]; first compound 0.05 µM) was 0.189 and the relative viability ([2]; first compound 0.1581 µM) was 0.224. The relative viability ([2]; first compound 0.5 µM) was 0.22, the relative viability ([3]; first compound 0.02 µM) was 0.19 and the relative viability ([3]; first compound 0.06325 µM) was 0.177. It also gave a relative viability ([3]; first compound 0.2 µM) of 0.195, a relative viability ([3]; first compound 0.6325 µM) of 0.194 and a relative viability ([3]; first compound 2 µM) of 0.152.

Cell Line NCI-H1793 has a relative viability ([1]; first compound 0.005 µM) of 0.329, a relative viability ([1]; first compound 0.01581 µM) of 0.275 and a relative viability ([1]; first compound 0.05 µM) of 0.353. It also gave a relative viability ([1]; first compound 0.1581 µM) of 0.267, a relative viability ([1]; first compound 0.5 µM) of 0.352 and a relative viability ([4]; first compound 0.02 µM) of 0.448. For the same cell line, the relative viability ([4]; first compound 0.06325 µM) was 0.353, the relative viability ([4]; first compound 0.2 µM) was 0.387 and the relative viability ([4]; first compound 0.6325 µM) was 0.381. The relative viability ([4]; first compound 2 µM) was 0.391.

For SW 900, the relative viability ([4]; first compound 0.02 µM) was 0.445, the relative viability ([4]; first compound 0.06325 µM) was 0.57 and the relative viability ([4]; first compound 0.2 µM) was 0.537. For the same cell line, the relative viability ([4]; first compound 0.6325 µM) was 0.641 and the relative viability ([4]; first compound 2 µM) was 0.409.

A549 gave a relative viability ([1]; first compound 0.005 µM) of 0.379, a relative viability ([1]; first compound 0.01581 µM) of 0.487 and a relative viability ([1]; first compound 0.05 µM) of 0.414. It also gave a relative viability ([1]; first compound 0.1581 µM) of 0.62, a relative viability ([1]; first compound 0.5 µM) of 0.496 and a relative viability ([2]; first compound 0.005 µM) of 0.539. For the same cell line, the relative viability ([2]; first compound 0.01581 µM) was 0.795, the relative viability ([2]; first compound 0.05 µM) was 0.837 and the relative viability ([2]; first compound 0.1581 µM) was 0.705. The relative viability ([2]; first compound 0.5 µM) was 0.554, the relative viability ([3]; first compound 0.02 µM) was 0.777 and the relative viability ([3]; first compound 0.06325 µM) was 0.69. It also gave a relative viability ([3]; first compound 0.2 µM) of 0.862, a relative viability ([3]; first compound 0.6325 µM) of 0.686 and a relative viability ([3]; first compound 2 µM) of 0.683.

In the case of HCC-44, the relative viability ([1]; first compound 0.005 µM) is reported as 0.445, the relative viability ([1]; first compound 0.01581 µM) is reported as 0.509 and the relative viability ([1]; first compound 0.05 µM) is reported as 0.595. The relative viability ([1]; first compound 0.1581 µM) was 0.856, the relative viability ([1]; first compound 0.5 µM) was 0.593 and the relative viability ([2]; first compound 0.005 µM) was 0.753. For the same cell line, the relative viability ([2]; first compound 0.01581 µM) was 0.837, the relative viability ([2]; first compound 0.05 µM) was 0.826 and the relative viability ([2]; first compound 0.1581 µM) was 0.875. The relative viability ([2]; first compound 0.5 µM) was 0.69, the relative viability ([3]; first compound 0.02 µM) was 0.82 and the relative viability ([3]; first compound 0.06325 µM) was 0.802. For the same cell line, the relative viability ([3]; first compound 0.2 µM) was 0.879, the relative viability ([3]; first compound 0.6325 µM) was 0.863 and the relative viability ([3]; first compound 2 µM) was 0.872.
